Experimental data from ChEMBL document CHEMBL4406911, “Discovery of Amino-cyclobutarene-derived Indoleamine-2,3-dioxygenase 1 (IDO1) Inhibitors for Cancer Immunotherapy” (ACS Med Chem Lett, 2019).
Each block holds one compound with its values, some of them ahead of it.

Experiments:
[1] = biological target: T1, Indoleamine 2,3-dioxygenase 1 (Homo sapiens, UniProt P14902); assay: Inhibition of recombinant His-tagged IDO1 (unknown origin) expressed in Escherichia coli preincubated for 30 mins followed by substrate tryptophan addition and measured after 60 mins by fluorescence based assay
T1 sequence (P14902 whole entry): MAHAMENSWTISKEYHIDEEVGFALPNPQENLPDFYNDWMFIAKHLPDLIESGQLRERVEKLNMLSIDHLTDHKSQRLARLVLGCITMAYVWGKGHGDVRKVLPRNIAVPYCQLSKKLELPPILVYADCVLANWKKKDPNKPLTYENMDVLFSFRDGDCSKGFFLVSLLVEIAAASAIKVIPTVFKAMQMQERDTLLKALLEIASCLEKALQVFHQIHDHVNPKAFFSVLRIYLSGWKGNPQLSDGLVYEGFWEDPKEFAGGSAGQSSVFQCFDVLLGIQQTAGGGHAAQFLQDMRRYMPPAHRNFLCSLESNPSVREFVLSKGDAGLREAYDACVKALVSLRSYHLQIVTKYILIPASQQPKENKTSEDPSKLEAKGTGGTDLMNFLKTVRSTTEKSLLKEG

[2] = biological target: T1, Indoleamine 2,3-dioxygenase 1; assay: Inhibition of IDO1 in human HeLa cells stimulated with IFNgamma using L-tryptophan as substrate incubated for 48 hrs by fluorescence based assay; format: cell-based
[3] = MRT in rat; format: ADME; conditions: in vivo
[4] = Clearance in human Hepatocyte; format: ADME, cell-based; conditions: hepatocytes, read-out: CLH
[5] = Total clearance in rat; format: ADME; conditions: in vivo
[6] = Intrinsic clearance in rat; format: ADME
[7] = Lipophilicity, log D of compound at pH 7 by HPLC analysis; format: physicochemical; conditions: buffer
[8] = Apparent permeability of compound; format: ADME; conditions: not told
[9] = Oral bioavailability in rat; format: ADME, organism-based; conditions: in vivo
[10] = Clearance in dog; format: ADME, Canis lupus familiaris; conditions: in vivo
[11] = Unbound clearance in dog; format: ADME, Canis lupus familiaris; conditions: in vivo
[12] = Half life in dog; format: ADME, Canis lupus familiaris; conditions: in vivo
[13] = Oral bioavailability in dog; format: ADME, organism-based, Canis lupus familiaris; conditions: in vivo
[14] = biological target: Tryptophan 2,3-dioxygenase (Homo sapiens, UniProt P48775); assay: Inhibition of TDO in human SW480 cells incubated for 48 hrs using L-tryptophan as substrate by fluorescence based assay; format: cell-based
Sequence of Tryptophan 2,3-dioxygenase (P48775 whole entry): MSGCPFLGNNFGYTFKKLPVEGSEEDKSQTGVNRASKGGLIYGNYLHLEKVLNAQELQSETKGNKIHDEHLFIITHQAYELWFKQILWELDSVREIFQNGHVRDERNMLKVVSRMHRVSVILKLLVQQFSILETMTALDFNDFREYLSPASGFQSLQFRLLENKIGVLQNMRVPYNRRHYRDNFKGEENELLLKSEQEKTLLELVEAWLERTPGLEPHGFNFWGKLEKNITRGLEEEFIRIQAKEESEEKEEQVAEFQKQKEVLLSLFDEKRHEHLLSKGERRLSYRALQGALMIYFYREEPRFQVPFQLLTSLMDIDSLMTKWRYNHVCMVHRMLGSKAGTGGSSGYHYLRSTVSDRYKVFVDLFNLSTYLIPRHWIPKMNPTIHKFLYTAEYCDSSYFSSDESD

CYP450 = CYP450 (Homo sapiens, UniProt P04798+P05177+P05181+P08684+P10632+P10635+P11509+P11712+P13584+P20813+P20815+P20853+P24462+P24903+P33260+P33261+P51589+P78329+P98187+Q02928+Q08477+Q16678+Q16696+Q5TCH4+Q6VVX0+Q7Z449+Q8TAV3+Q96SQ9+Q9HB55); assay: Inhibition of CYP450 (unknown origin); format: ADME, protein assay
[15] = biological target: T2, Nuclear receptor subfamily 1 group I member 2 (Homo sapiens, UniProt O75469); assay: Activation of PXR (unknown origin)
T2 sequence (O75469 whole entry): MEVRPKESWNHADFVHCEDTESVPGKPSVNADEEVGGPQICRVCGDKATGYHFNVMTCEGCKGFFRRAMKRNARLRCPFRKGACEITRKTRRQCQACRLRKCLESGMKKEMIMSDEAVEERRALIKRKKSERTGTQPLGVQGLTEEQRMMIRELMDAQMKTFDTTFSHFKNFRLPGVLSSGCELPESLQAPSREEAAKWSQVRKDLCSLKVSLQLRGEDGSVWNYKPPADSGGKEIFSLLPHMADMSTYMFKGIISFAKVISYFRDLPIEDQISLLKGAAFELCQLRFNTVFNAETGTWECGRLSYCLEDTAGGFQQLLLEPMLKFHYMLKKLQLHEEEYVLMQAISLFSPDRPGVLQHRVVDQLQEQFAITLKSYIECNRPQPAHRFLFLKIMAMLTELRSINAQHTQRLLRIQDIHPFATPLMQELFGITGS

[16] = Toxicity in rat assessed as adverse event; conditions: in vivo
[17] = Thermal stability of compound assessed as parent compound remaining measured after 3 hrs; format: physicochemical; conditions: read-out: Stability
[18] = Chemical stability of compound in 0.01 N HCl assessed as parent compound remaining measured after 3 hrs; format: physicochemical; conditions: read-out: Stability
[19] = Chemical stability of compound in 0.01 N NaOH assessed as parent compound remaining measured after 3 hrs; format: physicochemical; conditions: read-out: Stability
[20] = Chemical stability of compound in 0.1 N HCl assessed as parent compound remaining measured after 24 hrs; format: physicochemical; conditions: read-out: Stability
[21] = Chemical stability of compound in H2O2 assessed as parent compound remaining measured after 24 hrs; format: physicochemical; conditions: read-out: Stability
[22] = Chemical stability of compound in 0.1 N NaOH assessed as parent compound remaining measured after 24 hrs; format: physicochemical; conditions: read-out: Stability
[23] = Chemical stability of compound in AIBN assessed as parent compound remaining measured after 24 hrs; format: physicochemical; conditions: read-out: Stability
EMT6 [24] = assay: Antitumor activity against mouse EMT6 cells xenografted in BALB/c mouse assessed as reduction in tumor volume at 100 mg/kg, po bid and measured for weekly twice relative to control; format: functional; set-up: scale not given: the % may be the effect or the level left
EMT6 [25] = assay: Antitumor activity against mouse EMT6 cells xenografted in BALB/c mouse assessed as reduction in tumor volume at 100 mg/kg, po bid in presence of anti-PD1 at 5 mg/kg, […] and measured for weekly twice relative to control; format: functional; set-up: scale not given: the % may be the effect or the level left
[26] = biological target: Indoleamine 2,3-dioxygenase 1 (Rattus norvegicus, UniProt Q9ERD9); assay: Inhibition of rat IDO1 preincubated for 30 mins followed by substrate tryptophan addition and measured after 60 mins by fluorescence based assay
Sequence of Indoleamine 2,3-dioxygenase 1 (Rattus norvegicus, UniProt Q9ERD9) (Q9ERD9 whole entry): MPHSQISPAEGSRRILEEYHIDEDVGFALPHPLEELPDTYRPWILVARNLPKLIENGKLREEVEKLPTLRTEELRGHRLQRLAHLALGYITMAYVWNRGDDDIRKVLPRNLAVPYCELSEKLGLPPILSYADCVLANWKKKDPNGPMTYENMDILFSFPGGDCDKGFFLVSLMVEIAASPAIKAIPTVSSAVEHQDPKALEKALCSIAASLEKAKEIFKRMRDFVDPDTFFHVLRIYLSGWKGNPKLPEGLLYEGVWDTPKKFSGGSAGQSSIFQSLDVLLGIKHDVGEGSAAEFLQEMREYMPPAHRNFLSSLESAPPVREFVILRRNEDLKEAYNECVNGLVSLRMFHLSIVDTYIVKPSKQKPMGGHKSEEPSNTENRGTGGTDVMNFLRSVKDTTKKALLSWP

[27] = biological target: Indoleamine 2,3-dioxygenase 1 (Mus musculus, UniProt P28776); assay: Inhibition of mouse IDO1 preincubated for 30 mins followed by substrate tryptophan addition and measured after 60 mins by fluorescence based assay
Sequence of Indoleamine 2,3-dioxygenase 1 (Mus musculus, UniProt P28776) (P28776 whole entry): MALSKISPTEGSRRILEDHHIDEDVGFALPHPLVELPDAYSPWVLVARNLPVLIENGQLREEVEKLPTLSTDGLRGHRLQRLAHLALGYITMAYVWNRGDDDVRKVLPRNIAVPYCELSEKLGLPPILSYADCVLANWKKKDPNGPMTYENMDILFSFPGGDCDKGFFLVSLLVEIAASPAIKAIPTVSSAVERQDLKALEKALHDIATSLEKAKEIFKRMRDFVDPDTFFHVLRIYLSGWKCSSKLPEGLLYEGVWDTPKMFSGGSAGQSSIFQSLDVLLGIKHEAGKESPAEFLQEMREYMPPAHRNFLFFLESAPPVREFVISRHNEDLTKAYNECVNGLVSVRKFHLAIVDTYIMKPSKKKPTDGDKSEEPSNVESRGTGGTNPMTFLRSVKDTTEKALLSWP

[28] = Unbound clearance in rat; format: ADME; conditions: in vivo

SMILES: NC(=O)CNc1nonc1/C(=N/O)N[C@H]1Cc2ccc(F)cc21
MRT [3]: 1.7 h
CLint scaled [4]: 523 mL/min/kg
clearance [5]: 17 mL/min/kg
CLint scaled [6]: 499 mL/min/kg

SMILES: Nc1nonc1/C(=N/O)N[C@H]1Cc2ccc(F)cc21
MRT [3]: 0.4 h
logD [7]: 2.7
clearance [5]: 60 mL/min/kg
CLint scaled [6]: 7380 mL/min/kg

SMILES: Nc1nonc1/C(=N/O)NC1CCCc2ccccc21 (stereo not given)
IC50 [1]: 2750 nM

SMILES: O=C(CNc1nonc1/C(=N/O)N[C@H]1Cc2ccc(F)cc21)NCCO
MRT [3]: 2.9 h
CLint scaled [4]: 48 mL/min/kg
logD [7]: 1.9 to 2
clearance [5]: 15 mL/min/kg
CLint scaled [6]: 112 mL/min/kg
Papp [8]: 25 ×10⁻⁶ cm/s
bioavailability [9]: 63%
clearance [10]: 6 mL/min/kg
CL free [11]: 88 mL/min/kg
half-life [12]: 6 h
bioavailability [13]: 67%
IC50 [14]: > 10000 nM
IC50 (CYP450): > 50000 nM
EC50 [15]: > 30000 nM
Activity [16]: Non-Toxic
remaining at 3 h [17]: 88.4%
remaining at 3 h [18]: 98.1%
remaining at 3 h [19]: 97.4%
remaining at 24 h [20]: 96.2%
remaining at 24 h [21]: 97%
remaining at 24 h [22]: 81.5%
remaining at 24 h [23]: 77.1%
Activity (EMT6 [24]): 15%
Activity (EMT6 [25]): 79%
IC50 [26]: 59 nM
IC50 [27]: 28 nM
CL free [28]: 319 mL/min/kg

SMILES: NS(=O)(=O)NCCNc1nonc1/C(=N/O)N[C@H]1Cc2ccc(F)cc21
MRT [3]: 2 h
CLint scaled [4]: 462 mL/min/kg
logD [7]: 2.4
clearance [5]: 12 mL/min/kg
CLint scaled [6]: 463 mL/min/kg

SMILES: NS(=O)(=O)NCCSc1nonc1/C(=N/O)N[C@H]1Cc2ccc(F)cc21
MRT [3]: 2.5 h
CLint scaled [4]: 616 mL/min/kg
logD [7]: 2.45
clearance [5]: 14 mL/min/kg
CLint scaled [6]: 977 mL/min/kg

SMILES: Nc1nonc1/C(=N/O)NC1Cc2cc(F)c(F)cc21 (stereo not given)
IC50 [1]: 392 nM
IC50 [2]: 75 nM

SMILES: CC(=O)NCCNc1nonc1/C(=N/O)N[C@H]1Cc2ccc(F)cc21
MRT [3]: 0.4 h
CLint scaled [4]: 863 mL/min/kg
clearance [5]: 51 mL/min/kg
CLint scaled [6]: 3550 mL/min/kg

The next lines start with the values.

IC50 [1]: 735 nM
IC50 [2]: 150 nM
SMILES: Nc1nonc1/C(=N/O)NC1Cc2cc(F)ccc21 (stereo not given)

IC50 [1]: 43800 nM
SMILES: Nc1nonc1/C(=N/O)NC1Cc2ccccc2C1

MRT [3]: 0.8 h
CLint scaled [4]: 108 mL/min/kg
logD [7]: 2
clearance [5]: 42 mL/min/kg
CLint scaled [6]: 2500 mL/min/kg
SMILES: O=C(CSc1nonc1/C(=N/O)N[C@H]1Cc2ccc(F)cc21)NCCO

MRT [3]: 1 h
CLint scaled [4]: 354 mL/min/kg
logD [7]: 2.46
clearance [5]: 29 mL/min/kg
CLint scaled [6]: 1880 mL/min/kg
SMILES: CC(=O)NCCSc1nonc1/C(=N/O)N[C@H]1Cc2ccc(F)cc21
